# Test results taken from ChEMBL document CHEMBL4118111, “Discovery and optimization of piperazine-1-thiourea-based human phosphoglycerate dehydrogenase inhibitors” (Bioorg Med Chem, 2018).
# How the values were obtained:
# [1] = target: T1, D-3-phosphoglycerate dehydrogenase (Homo sapiens) (UniProt O43175); assay: Inhibition of N-terminal His6-tagged human liver PHGDH expressed in Escherichia coli Rosetta (DE3)pLysS at 57 uM using 3-phosphoglycerate as substrate after 20 mins in presence of NAD+ by resazurin fluorescence based PSAT1/diaphorase/PSPH coupled enzyme assay
# T1 sequence (whole entry): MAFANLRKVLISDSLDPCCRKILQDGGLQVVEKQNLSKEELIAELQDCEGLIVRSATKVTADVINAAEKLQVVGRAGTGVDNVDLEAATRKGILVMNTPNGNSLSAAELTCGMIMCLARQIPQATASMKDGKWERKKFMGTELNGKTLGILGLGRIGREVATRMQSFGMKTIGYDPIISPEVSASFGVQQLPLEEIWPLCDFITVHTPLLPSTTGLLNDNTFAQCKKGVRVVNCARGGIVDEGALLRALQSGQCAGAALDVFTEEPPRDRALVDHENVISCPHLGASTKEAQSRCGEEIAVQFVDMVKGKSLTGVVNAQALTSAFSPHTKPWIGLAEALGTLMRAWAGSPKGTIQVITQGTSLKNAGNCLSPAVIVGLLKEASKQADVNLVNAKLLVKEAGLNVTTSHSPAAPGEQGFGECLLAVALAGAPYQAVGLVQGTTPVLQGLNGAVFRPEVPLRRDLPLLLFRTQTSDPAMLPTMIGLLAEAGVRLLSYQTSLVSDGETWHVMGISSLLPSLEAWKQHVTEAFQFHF
# [2] = target: T2, D-3-phosphoglycerate dehydrogenase (Homo sapiens, UniProt O43175)
# T2 sequence (O43175 whole entry): T1 sequence (whole entry)
# [3] = target: T2, D-3-phosphoglycerate dehydrogenase; assay: Inhibition of PHGDH (unknown origin)
smiles,measurement,setting,value
Cc1cc(C)nc(NC(=S)N2CCN(Cc3ccc(Br)cc3)CC2)c1,inhibition,[1],92%
same,IC50,[2],17 µM
Cc1ccnc(NC(=S)N2CCN(c3cccc(C(F)(F)F)c3)CC2)c1,inhibition,[1],92%
Cc1cc(C)nc(NC(=S)N2CCN(Cc3ccc(C(F)(F)F)cc3)C(C)C2)c1 (centres undefined),inhibition,[1],99%
same,IC50,[2],8.3 µM
Cc1cc(C)nc(NC(=S)N2CCN(Cc3ccccc3Cl)CC2)c1,inhibition,[1],106%
same,IC50,[2],20 µM
Cc1cc(C)nc(NC(=S)N2CCCC(NC(=O)c3ccc(C(F)(F)F)cc3)C2)c1 (centres undefined),inhibition,[1],88%
same,IC50,[2],8.7 µM
Cc1cc(C)nc(NC(=S)N2CCCC(NC(=O)c3cccc(C(F)(F)F)c3)C2)c1 (centres undefined),inhibition,[1],91%
same,IC50,[2],10 µM
Cc1cc(C)nc(NC(=S)N2CCN(Cc3cccc(C(F)(F)F)c3)CC2)c1,inhibition,[1],102%
same,IC50,[2],5.3 µM
Cc1cc(C)nc(NC(=S)N2CCN(Cc3ccccn3)CC2)c1,inhibition,[1],51%
same,IC50,[2],50 µM
Cc1cc(C)nc(NC(=S)N2CCCC(NCc3ccc(C(F)(F)F)cc3)C2)c1 (centres undefined),inhibition,[1],89%
same,IC50,[2],12 µM
Cc1cc(C)nc(NC(=S)N2CCN(Cc3ccccc3F)CC2)c1,inhibition,[1],56%
same,IC50,[2],41 µM
Cc1cc(C)nc(NC(=S)N2CCN(Cc3ccc(C(F)(F)F)cc3)CC2)c1,inhibition,[1],96%
COc1ccccc1N1CCN(C(=S)Nc2cc(C)cc(C)n2)CC1,inhibition,[1],109%
same,IC50,[2],24 µM
CCNC(=S)N/N=C/c1ccc(-c2ccc(C(=O)O)c(Cl)c2)o1,IC50,[3],35.7 µM
COc1cccc(CN2CCN(C(=S)Nc3cc(C)cc(C)n3)CC2)c1,inhibition,[1],94%
same,IC50,[2],30 µM
Cc1cccc(CN2CCN(C(=S)Nc3cc(C)cc(C)n3)CC2)c1,inhibition,[1],92%
same,IC50,[2],20 µM
Cc1cc(C)nc(NC(=S)N2CCN(C(C)c3ccc(C(F)(F)F)cc3)CC2)c1 (centres undefined),inhibition,[1],90%
same,IC50,[2],8 µM
FC(F)(F)c1cccc(N2CCN(C(=S)Nc3cccnc3)CC2)c1,inhibition,[1],67%
same,IC50,[2],8.9 µM
FC(F)(F)c1cccc(N2CCN(C(=S)Nc3cc(C(F)(F)F)ccn3)CC2)c1,inhibition,[1],61%
same,IC50,[2],6.4 µM
Cc1cc(C)nc(NC(=S)N2CCC(Nc3ccc(C(F)(F)F)cc3)CC2)c1,inhibition,[1],97%
same,IC50,[2],7.7 µM
Cc1cc(C)nc(NC(=S)N2CCC(NC(=O)c3cccc(C(F)(F)F)c3)CC2)c1,inhibition,[1],94%
same,IC50,[2],11 µM
COc1ccc(CN2CCN(C(=S)Nc3cc(C)cc(C)n3)CC2)cc1,inhibition,[1],87%
same,IC50,[2],26 µM
Cc1cc(C)nc(NC(=S)N2CCCC(Nc3ccc(C(F)(F)F)cc3)C2)c1 (centres undefined),inhibition,[1],85%
same,IC50,[2],5.7 µM
Cc1cc(C)nc(NC(=S)N2CCN(Cc3cccnc3)CC2)c1,Imax,[1],34%
Cc1cc(C)nc(NC(=S)N2CCCC(Nc3cccc(C(F)(F)F)c3)C2)c1 (centres undefined),inhibition,[1],84%
same,IC50,[2],7.2 µM
Cc1cc(C)nc(NC(=S)N2C[C@@H](C)N(Cc3ccc(C(F)(F)F)cc3)[C@@H](C)C2)c1,Imax,[1],16%
Cc1cc(C)nc(NC(=S)N2CCN(C(=O)c3cccc(C(F)(F)F)c3)CC2)c1,inhibition,[1],101%
same,IC50,[2],22 µM
Cc1cc(C)nc(NC(=S)N2CCN(Cc3ccccc3)CC2)c1,inhibition,[1],78%
same,IC50,[2],40 µM
Cc1ccnc(CC(=S)N2CCN(c3cccc(C(F)(F)F)c3)CC2)c1,Imax,[1],37%
Cc1ccnc(NC(=O)N2CCN(c3cccc(C(F)(F)F)c3)CC2)c1,Imax,[1],16%
Cc1cc(C)nc(NC(=S)N2CCN(Cc3cccc(Cl)c3)CC2)c1,inhibition,[1],90%
same,IC50,[2],11 µM
Cc1cc(C)nc(NC(=S)N2CCN(c3ccc(C(F)(F)F)cn3)CC2)c1,inhibition,[1],96%
Cc1cccc(NC(=S)N2CCN(c3cccc(C(F)(F)F)c3)CC2)c1,Imax,[1],20%
Cc1cc(C)nc(NC(=S)N2CCN(Cc3ccc(F)cc3)CC2)c1,inhibition,[1],86%
same,IC50,[2],38 µM
Cc1cc(C)nc(NC(=S)N2CCN(c3cccc(C(F)(F)F)n3)CC2)c1,inhibition,[1],100%
same,IC50,[2],11 µM
Cc1ccc(CN2CCN(C(=S)Nc3cc(C)cc(C)n3)CC2)cc1,inhibition,[1],93%
same,IC50,[2],17 µM
Cc1cc(C)nc(NC(=S)N2CCN(c3ccc(C(F)(F)F)cc3)CC2)c1,inhibition,[1],98%
same,IC50,[2],4.3 µM
Cc1ccnc(N(C)C(=S)N2CCN(c3cccc(C(F)(F)F)c3)CC2)c1,Imax,[1],38%
